Laboratory results as given in PMC4389225, “Triaminopyrimidine is a fast-killing and long-acting antimalarial clinical candidate” (Nature Communications, 2015).
≈ marks a conversion by molar mass, not a printed value.

Experiments:
[1] = Solubility
[2] = Acute anaesthetised guinea pig CVS model, compound 2; format: in vivo
Experimental: Protein binding (human free)
Guinea Pig Study: Anaesthetised guinea pigs (n=2) were treated with compound 2 at 5 mg/kg followed by 15 mg/kg (AstraZeneca, Alderley Park, UK) using methodology based on that used to assess compound 12 at Biotrial, France. Haemodynamic and electrocardiography […]
achieved with compound 2 in an early mouse model once exposures reached approximately 9 μM Cmax (total). Consequently, compound 2 was classified as having no therapeutic window preclinically in this model. […]

[3] = test system: Dd2 PfATP4 NITD609; assay: [3H]-hypoxanthine incorporation assay, Dd2 PfATP4 NITD609 resistant; format: cell-based; conditions: Plasmodium falciparum
Experimental: (§1) Supplementary Table 3: Compound 9 and 12 retain their activity against Pf strains harbouring mutations to novel antimalarial agents in clinical development. Compound 9 and 12 were tested for their antiplasmodial activity against a panel of Pf strains known to harbour mutations conferring resistance to novel agents under clinical development. Parasite growth inhibition is measured using the [3H]-hypoxanthine incorporation assay. IC50s are established for each strain (n ≥2) and compared to the IC50 of Dd2 (standard pan-resistant […]

[4] = Blood-plasma ratio, human; format: in vitro ADME
Excerpt: (§2) Supplementary Note 5: Prediction of human clearance for compound 12 by IVIVE.
(§3) Human clearance (CL) was predicted by in vitro-in vivo extrapolation (IVIVE) from the in vitro Clint in human hepatocytes6. In vitro Clint was scaled to in vivo Clint as follows:
(§4) Clint in vivo = Clint in vitro * scaling factors * fublood/fuinc
(§5) The liver weights used for scaling were 40, 32 and 24 g/kg body weight in rat, dog and human respectively. Hepatocellularity used for scaling was 163, 169 and 120 (X 106) cells/g liver in rat, dog and human respectively. Free fraction in blood was calculated as fuplasma /Blood:Plasma (BP) ratio. BP ratio and free fraction in the hepatocyte incubation mix, fuinc, were measured in vitro. Slope and intercept from the linear regression analysis of IVIVC for a large number of AstraZeneca compounds was applied for final correction in the scaled in vivo Clint. A well stirred model was used for CL prediction.
(§6) Where Qh is the liver blood flow. The values of Qh in rat, dog and human are 72, 55 and 20 mL.min-1kg-1 in rat, dog and human, respectively. In vitro parameters, observed in vivo CL and predicted CL are shown in supplementary Table 10. […]
(§7) (also on this page, place not known: in vivo in vivo CLintQ CLintQCL Predicted predicted predicted h h + ×=)
(§8) (1 picture or pasted object on this page, not shown here)

[5] = test system: Pf 3D7A; assay: in vitro parasite reduction ratio (PRR) assay; conditions: after 48 h of exposure, 10 times IC50
[6] = test system: Pf male and female gametes; assay: Pf male and female dual gamete assay; conditions: Plasmodium falciparum, read-out: inhibition in Pf male and female dual gamete assay
[7] = Hepatocyte Clint, dog; format: in vitro ADME; conditions: for Predicted blood CL: Dog
Excerpt: as §2, §3, §4, §5, §6, §7, §8

[8] = test system: Dd2-6R F2 D8; assay: SYBR green growth assay, Dd2-6R F2 D8; conditions: Plasmodium falciparum
[9] = test system: Dd2-6R F2 C5; assay: SYBR green growth assay, Dd2-6R F2 C5; conditions: Plasmodium falciparum
[10] = in vitro; format: in vitro ADME; conditions: pH 7.4, Michaelis-Menten
Experimental: Supplementary Note 3: Metabolism of 12 in the presence of mouse (MLM) and human […]
The kinetics of metabolism of compound 12 to form the N-demethylated metabolite, 9, was studied by incubating 12 with HLM or MLM. Compound 12 was incubated with 1 mg/mL of pooled liver microsomes at four different compound concentrations (5, 10, 20 and 30 μM) in 166 µL of buffer containing 100 mM phosphate buffer, pH 7.4 and 1 mM NADPH, at 37°C.
Aliquots of 20 µL of incubation mix were quenched with 4 volumes of ice-cold acetonitrile at different time points, i.e., 0, 5, 10, 20 and 30 min in a 96 well microtitre plate. The quenched plate was centrifuged at 4000 rpm for 15 min and 20 µL of the supernatant was diluted to 200 µL with 50% acetonitrile in water. Depletion of 12 and formation of 9 was analysed by LC-MS/MS. Concentrations of 12 and 9 were determined using calibration curves prepared with synthetic standards. Kinetics of metabolite formation or parent depletion is shown in supplementary Fig. 5, Fig. 6 and kinetic parameters are described in supplementary Table […]
The rate and extent of metabolite formation in the presence of mouse liver microsomes was […]
than in the presence of HLM.

[11] = Observed blood CL, mouse
[12] = test system: Dd2 DHODH DSM265; assay: [3H]-hypoxanthine incorporation assay, Dd2 DHODH DSM265 resistant; format: cell-based; conditions: Plasmodium falciparum
Experimental: as §1

[13] = Plasma protein binding, rat
[14] = PK in the blood of infected Pf/SCID mice; format: in vivo, mouse
Experimental: Peripheral blood samples (25 μl) were taken at different times (0.25, 0.5, 1, 2, 4, 6, 8 and 23 h), mixed with 25 μl of H2O Mili-Q and immediately frozen on dry ice. The frozen samples were stored at −80 °C until analysis. Vehicle-treated mice experienced the same blood-sampling regimen. Blood samples were processed by liquid–liquid extraction by mixing 10 μl diluted blood with 180 μl AcN:MeOH (80:20; v-v) mixture. Quantitative analysis by Liquid chromatography-tandem mass spectrometry (LC-MS/MS) was performed using UPLC (Waters) and Sciex API4000. The lower limit of quantification in this assay was 0.005 μg ml^−1.

In the case of `Cc1cc(Nc2ncc(N3CCN(C)CC3)c(N3CCCC3)n2)ccn1` [compound 2], the solubility [1] is reported as 830 µM (≈ 293 µg/mL), the “A - Plasma Cmax Total” value ([2]; 5 mg/kg i.v.) is reported as 4.53 µM and the “Safety Margin (A / B)” value ([2]; 5 mg/kg i.v.) is reported as “None”. For the same molecule, the “Summary of clinical signs and effects” value ([2]; 5 mg/kg i.v.) was “Haemodynamic Effects”, the “A - Plasma Cmax Total” value ([2]; 15 mg/kg i.v.) was 20.42 µM and the “Safety Margin (A / B)” value ([2]; 15 mg/kg i.v.) was “None”. For the same molecule, the “Summary of clinical signs and effects” value ([2]; 15 mg/kg i.v.) was “Haemodynamic & ECG Effects”.

For `Cc1nc(Nc2ncc(N3CCN(C)[C@H](C)C3)c(Nc3cc(C)n(C)n3)n2)cc(C2CC2)c1F` [compound 12, (R)-N2-(4-cyclopropyl-5-fluoro-6-methylpyridin-2-yl)-N4-(1,5-dimethyl-1H-pyrazol-3-yl)-5-(3,4-dimethylpiperazin-1-yl)pyrimidine-2,4-diamine], the IC50 [3] was 6.8 nM, the “B:P ratio” value [4] was 1.3 and the “log kill in PRR assay” value [5] was greater than 4 log. For the same molecule, the inhibition at 1 µM [6] was 16.5 ± 6.3%, the “Predicted blood CL” value [7] was 38 % LBF and the “Predicted blood CL” value ([7]; IVIVC from hepatocyte Clint) was 20.8 mL/min/kg. It also gave a hepatocyte CLint ([7]; dog, hepatocytes) of 9.3 µL/min/1e6 cells, an IC50 [8] of 69.6 nM and an IC50 [9] of 70.1 nM. For the same molecule, the Km ([10]; human, HLM) was 22.5 µM, the Km ([10]; mouse, MLM) was 78.3 µM and the “Observed blood CL” value ([11]; Mouse) was 32-35 % LBF. It also gave a clearance ([11]; mouse, blood) of 48 to 53 mL/min/kg, an IC50 [12] of 6.5 nM and a fraction unbound [13] of 0.04. The CL/F ([14]; SCID, mouse, whole blood, oral, parent, Fixed) was 650 mL/min/kg, the “Blood Cmin (minimum parasiticidal concentration, MPC)” value ([14]; at 40 mg kg^−1) was 0.04 µM and the Ka ([14]; parent, Fixed) was 1 h⁻¹. It also gave a Ke0 ([14]; parent, Fixed) of 0.06 h⁻¹ and a Vc/F ([14]; parent, Fixed) of 462 L/kg.
